One test relates to Aβ40 in brain. In words: Lowering of Aβ40 in brain of wild-type mice. The test is classed as in vivo. As to conditions: brain Aβ40 as % of control (vehicle group), 30 mg/kg per os, mouse, after 4 h. The procedure:
Lowering of Aβ40 in Brain of Wild-Type Mice:
Animals and Housing Conditions.
Animals were maintained in a 12/12 h light/dark cycle, with lights starting at 6 a.m., and experiments were conducted during the light phase. Animal housing and experimental procedures were in line with ethical and legal guidelines and were authorized by local veterinary authorities.
Female C57B1/6J mice were treated with a dose of 30 mg/kg of the compounds, 3-4 animals per treatment group. The test compound was dissolved in 5% EtOH, 10% Solutol, and was applied per os at 10 mL/kg. After 4 h, the animals were sacrificed and brain and plasma were collected. The brain was cut into halves and immediately frozen on dry ice. Brain was used for measurement of Aβ40 and plasma was used for determination of compound exposure. […] Brain tissue was homogenized in 2% DEA buffer in a Roche MagnaLyser (20″, 4000 rpm) and subsequently centrifuged for 1 h at 100000 g. DEA was reduced to 0.2% in 50 mM NaCl and one-half of the DEA lysate was passed over an Oasis Solid phase extraction plate (Waters; cat. no. 186000679), which had been activated with MeOH and equilibrated in dH2O (1 mL each). After washes in 10% and 30% MeOH (1 mL each), the Aβ-peptides were eluted in 0.8 mL of 2% NH4OH in 90% MeOH. The eluate was dried over a N2 flow, and the dried sample was reconstituted in 30 μL of AlphaLISA assay buffer. Aβ40 was determined by an AlphaLISA assay (Perkin-Elmer). In a white 96-well, half area microplate (Perkin-Elmer cat. no. 6005561), 20 μL of the reconstituted sample were mixed with 5 μL of biotinylated BAP-24 (specific for C-terminus of Aβ40) (Brockhaus, M.; Grunberg, J.; Rohrig, S.; Loetscher, H.; Wittenburg, N.; Baumeister, R.; Jacobsen, H.; Haass, C. Caspasemediated cleavage is not required for the activity of presenilins in amyloidogenesis and NOTCH signaling. NeuroReport 1998, 9, 1481-1486) stock=4.4 mg/mL, f.c.5.5 μg/mL), and 5 μL 252Q6 acceptor beads (252Q6 antibody, Invitrogen AMB0062) had been previously conjugated with AlphaLISA Acceptor beads (Perkin-Elmer cat. no. 6772002); final dilution 1:500). The mix was incubated for 1 h at RT in the dark. Then 20 μL of Streptavin-coated Donor Beads (Perkin-Elmer cat. no. 6760002, final dilution 1:125) were added and this final mix was incubated in the dark for another 30 min at RT before RFU was measured in an AlphaScreen Reader (Perkin-Elmer Envision 2104). The value obtained for Ap40 in the treated animals was related to the value in the vehicle group and is given in %. Alternatively a commercial ELISA was used for Aβ40 determination (Wako ELISA: (“Human/Rat β Amyloid (40) ELISA kit Wako II”; cat nr. 294-64701) following the manufacture's instruction. Also here the Aβ-lowering efficacy was calculated as percentage of the vehicle group.

For another test, the target named is T1, BACE1 (Homo sapiens, UniProt P56817).
T1 construct: endogenous in cells; host or cells: HEK293 APP cells
T1 sequence (P56817 46-501): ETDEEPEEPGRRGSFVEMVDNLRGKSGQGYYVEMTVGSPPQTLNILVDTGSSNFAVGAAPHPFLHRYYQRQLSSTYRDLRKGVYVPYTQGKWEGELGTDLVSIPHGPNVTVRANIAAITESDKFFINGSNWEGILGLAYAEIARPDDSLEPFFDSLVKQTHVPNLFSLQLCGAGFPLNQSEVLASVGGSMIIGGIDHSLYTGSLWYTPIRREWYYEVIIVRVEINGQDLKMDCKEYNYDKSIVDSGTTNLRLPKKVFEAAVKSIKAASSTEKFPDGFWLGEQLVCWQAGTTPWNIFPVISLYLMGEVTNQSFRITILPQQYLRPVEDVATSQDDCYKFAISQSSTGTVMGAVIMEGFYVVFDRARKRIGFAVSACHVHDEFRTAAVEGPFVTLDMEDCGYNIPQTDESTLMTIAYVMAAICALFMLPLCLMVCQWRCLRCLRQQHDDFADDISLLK
In words: Cellular Aβ-lowering assay (Abeta 40 AlphaLISA, HEK293 APP cells). Type of test: cell-based. As to conditions: 18-20 hrs incubation, Aβ 40 in culture supernatant, read-out: BACE1 cell act. Aβ40 IC50. The gist of the method:
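HEK293 APP cells were treated with compound for 18-20 hrs at 37° C in 1% DMSO. Secreted Aβ40 in the supernatant was measured by AlphaLISA at 615 nm. Values are % of the DMSO-only signal, fit to give IC50.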
(In general: In Alpha technology, singlet oxygen from a donor bead excites a nearby acceptor bead.)

As to `CN=[S@@]1(=O)C[C@@](C)(c2cc(-c3cc(-c4cnc(OC)cn4)no3)ccc2F)N=C(N)C1(C)C` [Example 7, (1R,3R)-5-amino-3-(2-fluoro-5-(3-(5-methoxypyrazin-2-yl)isoxazol-5-yl)phenyl)-3,6,6-trimethyl-1-(methylimino)-3,6-dihydro-2H-1,4-thiazine 1-oxide 2,2,2-trifluoroacetate], the in vivo effect entry in the test with Aβ40 in brain is “B (B = less than 90% of control @ 30 mg/kg mouse)”. For the same compound, the IC50 at BACE1 amounted to 56 nM.

Take `CN=[S@@]1(=O)C[C@@](C)(c2cc(-c3cc(-c4ncc(Cl)cn4)no3)ccc2F)N=C(N)C1(C)C` [Example 6, (1R,3R)-5-amino-3-(5-(3-(5-chloropyrimidin-2-yl)isoxazol-5-yl)-2-fluorophenyl)-3,6,6-trimethyl-1-(methylimino)-3,6-dihydro-2H-1,4-thiazine 1-oxide 2,2,2-trifluoroacetate]: in the test with Aβ40 in brain, the in vivo effect result is “A (A = less than 60% of control @ 30 mg/kg mouse)”. In addition, the IC50 at BACE1 came to 6 nM.

Consider `[2H]C([2H])([2H])N=[S@@]1(=O)C[C@@](C)(c2cc(-c3cc(-c4cnc(OC)cn4)no3)ccc2F)N=C(N)C1(C)C` [Example 24, (1R,3R)-3-[2-fluoro-5-[3-(5-methoxypyrazin-2-yl)isoxazol-5-yl]phenyl]-3,6,6-rimethyl-1-oxo-1-(trideuteriomethylimino)-2H-1,4-thiazin-5-amine 2,2,2-trifluoroacetate], for which the in vivo effect entry in the test with Aβ40 in brain was “A (A = less than 60% of control @ 30 mg/kg mouse)”. The IC50 on BACE1 turned out to be 50 nM.

Regarding `CN=[S@@]1(=O)C[C@@](C)(c2cc(-c3cc(-c4cnc(OCC(F)F)cn4)no3)ccc2F)N=C(N)C1(C)C` [Example 5, (1R,3R)-5-amino-3-(5-(3-(5-(2,2-difluoroethoxy)pyrazin-2-yl)isoxazol-5-yl)-2-fluorophenyl)-3,6,6-trimethyl-1-(methylimino)-3,6-dihydro-2H-1,4-thiazine 1-oxide 2,2,2-trifluoroacetate], the in vivo effect entry in the test with Aβ40 in brain was “A (A = less than 60% of control @ 30 mg/kg mouse)”. For the same compound, the IC50 on BACE1 came out at 13 nM.

In general, IC50 refers to the midpoint of a concentration-inhibition curve.

The record behind these values is US10047081B2, “BACE1 inhibitors” (Hoffmann-La Roche Inc., priority 2015, dated 2018).
